Results from patent publication US20100119529A1, “ELASTIN-LIKE POLYMER DELIVERY VEHICLES” (priority 2006, published 2010).

Tests used:
[1] = tested on: mouse mammary tumors; conditions: 43° C. hyperthermia; cited from earlier work
[2] = tested on: MCF-7 human breast cancer cells; assay: Cytotoxicity test, XTT assay; type: cell-based; set-up: Average (XTT metabolic signal): unit not given here; conditions: for IC50: 74 hr incubation, XTT
Description: MCF-7 human breast cancer cells (ATCC HTB-22) were plated in 96-well plates at an initial density of 5000 cells per well in 90 μL of RMPI 1640 supplemented with 10% fetal bovine serum, 100 IU penicillin, and 100 μg/mL streptomycin, 2 mM L-glutamine, and maintained at 37° C. and 5% CO2 atmosphere. After 24 hr, stock solutions of 17-GAOH in DMSO and GA-(VKG)8ELP1-120 were diluted 10-fold with growth media and added to wells (6 wells) as […] (1% v/v final DMSO concentration). The cells were incubated with the compounds for 74 hr and the metabolic rate was determined using an XTT™ assay kit (Sigma) according to the manufacturer's instructions. The concentrations inhibiting cell growth by 50% (IC50) were determined by fixed Hill slope regression with SIGMA PLOT™ 2004 (Systat Software, Inc.).

Structure (SMILES) | increase of thermal enhancement ratio (TER) [1] | IC50 ([2]; test 1) [nM] | Average (XTT metabolic signal) ([2]; test 1, final concentration 0.1 nM) | Average (XTT metabolic signal) ([2]; test 1, final concentration 1 nM) | Average (XTT metabolic signal) ([2]; test 1, final concentration 10 nM) | Average (XTT metabolic signal) ([2]; test 1, final concentration 100 nM) | Average (XTT metabolic signal) ([2]; test 1, final concentration 1,000 nM) | Average (XTT metabolic signal) ([2]; test 1, final concentration 10,000 nM) | IC50 ([2]; test 2) [nM] | Average (XTT metabolic signal) ([2]; test 2, final concentration 50 nM) | Average (XTT metabolic signal) ([2]; test 2, final concentration 100 nM) | Average (XTT metabolic signal) ([2]; test 2, final concentration 250 nM) | Average (XTT metabolic signal) ([2]; test 2, final concentration 500 nM) | Average (XTT metabolic signal) ([2]; test 2, final concentration 1,000 nM) | Average (XTT metabolic signal) ([2]; test 2, final concentration 2,000 nM)
N.N.[Cl][Pt][Cl] [Cisplatin] | 1.4-5.0 fold | – | – | – | – | – | – | – | – | – | – | – | – | – | –
CO[C@H]1/C=C\C=C(/C)C(=O)NC2=CC(=O)C(NCCO)=C(C[C@@H](C)C[C@H](OC)[C@H](O)[C@@H](C)/C=C(\C)[C@@H]1OC(N)=O)C2=O [17-HEA-DMGA, 17-β-hydroxyethylamino-17-demethoxygeldanamycin] | – | 855 | 1158 | 1288 | 1274 | 1588 | 344 | 114 | 731 | 788.5 | 999.7 | 774.3 | 515.0 | 297.5 | 46.9
